Measured values from article PMC5306220 (European Journal of Clinical Pharmacology, 2016).

Columns and labels:
[1] = Population PK/PD model fitted to study data: PK parameter estimates; assay type: in vivo, human; settings: PK/PD model typical value
Description: To bridge the adult and pediatric PK, the PK model included weight as an initial covariate on clearance and volume of distribution parameters, as shown in the following equation: Pi=Ppop⋅WTi/WTreference^b⋅e^ηi

[2] = Safety: treatment-emergent adverse events, laboratory tests, vital signs, ECG;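 note: dosing after fasting overnight (8 h minimum), clinic stay to day 2, outpatient visits on days 3 and 4, and a telephone check for adverse events about 14 days after study exit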
blood pressure = settings: patients with T2DM; cited from earlier work
[3] = Plasma and urine pharmacokinetics of alogliptin after a single oral dose (LC-MS/MS, noncompartmental)
[4] = 12.5 mg single dose, Group 1 10 to <14 years, N = 5
[5] = 12.5 mg single dose, Group 2 14 to <18 years, N = 8
[6] = 25 mg single dose, Group 1 10 to <14 years, N = 4
[7] = 25 mg single dose, Group 2 14 to <18 years, N = 7
[8] = 25 mg single dose, Group 3 Adults, N = 22
[9] = entire study period, all 46 subjects
[10] = pediatric subjects, 12.5-mg dose vs adults 25 mg

SMILES: Cn1c(=O)cc(N2CCC[C@@H](N)C2)n(Cc2ccccc2C#N)c1=O [alogliptin]
- Absorption rate constant [KA] in adult subjects ([1]; adult subjects): 1.66 h⁻¹
- Oral clearance [CL/F] in adult subjects ([1]; adult subjects, reference body weight 70 kg): 13.0 L/h
- Absorption rate constant [KA] in pediatric subjects ([1]; pediatric subjects): 0.590 h⁻¹
- Oral clearance [CL/F] in pediatric subjects ([1]; pediatric subjects, reference body weight 70 kg): 14.4 L/h
- Vd/F ([1]; human, plasma, oral, read-out: Central volume of distribution [V2/F]): 125 L
- Mild TEAEs: Subjects, N (%) [2, 4]: 3 (60.0)
- Moderate TEAEs: Subjects, N (%) [2, 4]: 0
- Not related TEAEs: Subjects, N (%) [2, 4]: 1 (20.0)
- Related TEAEs: Subjects, N (%) [2, 4]: 2 (40.0)
- Severe TEAEs: Subjects, N (%) [2, 4]: 0
- TEAEs: Subjects, N (%) [2, 4]: 3 (60.0)
- Mild TEAEs: Subjects, N (%) [2, 5]: 5 (62.5)
- Moderate TEAEs: Subjects, N (%) [2, 5]: 0
- Not related TEAEs: Subjects, N (%) [2, 5]: 3 (37.5)
- Related TEAEs: Subjects, N (%) [2, 5]: 2 (25.0)
- Severe TEAEs: Subjects, N (%) [2, 5]: 0
- TEAEs: Subjects, N (%) [2, 5]: 5 (62.5)
- Mild TEAEs: Subjects, N (%) [2, 6]: 1 (25.0)
- Moderate TEAEs: Subjects, N (%) [2, 6]: 0
- Not related TEAEs: Subjects, N (%) [2, 6]: 1 (25.0)
- Related TEAEs: Subjects, N (%) [2, 6]: 0
- Severe TEAEs: Subjects, N (%) [2, 6]: 0
- TEAEs: Subjects, N (%) [2, 6]: 1 (25.0)
- Mild TEAEs: Subjects, N (%) [2, 7]: 2 (28.6)
- Moderate TEAEs: Subjects, N (%) [2, 7]: 0
- Not related TEAEs: Subjects, N (%) [2, 7]: 2 (28.6)
- Related TEAEs: Subjects, N (%) [2, 7]: 0
- Severe TEAEs: Subjects, N (%) [2, 7]: 0
- TEAEs: Subjects, N (%) [2, 7]: 2 (28.6)
- Mild TEAEs: Subjects, N (%) [2, 8]: 7 (31.8)
- Moderate TEAEs: Subjects, N (%) [2, 8]: 1 (4.5)
- Not related TEAEs: Subjects, N (%) [2, 8]: 4 (18.2)
- Related TEAEs: Subjects, N (%) [2, 8]: 5 (22.7)
- Severe TEAEs: Subjects, N (%) [2, 8]: 1 (4.5)
- TEAEs: Subjects, N (%) [2, 8]: 9 (40.9)
- AEs leading to study drug discontinuation ([2]; entire study): No AEs led to study drug discontinuation
- abnormal ECG results reported as TEAE ([2]; entire study): No abnormal ECG result was reported as a TEAE
- deaths ([2]; entire study): no deaths occurred
- number of TEAEs [2, 9]: 36
- subjects who experienced TEAEs [2, 9]: 20
- tolerability ([2]; single doses 12.5 and 25 mg, pediatric and adult subjects): well tolerated
- effect on blood pressure (blood pressure): lower blood pressure
- mean CL/F higher in all pediatric subjects compared with adult subjects ([3]; groups 1 and 2 vs adults): up to 37%
- Tmax ([3]; human, plasma, po): 2 to 4 h
- correlation between dose-normalized AUC0-inf and creatinine clearance ([3]; pediatric and adult subjects): no correlations were observed
- mean AUC0-inf lower than in adults [3, 10]: 54%
- mean Cmax lower than in adults [3, 10]: 58%
- mean AUC0-inf lower than in adults receiving the 25-mg dose ([3]; pediatric subjects, 25-mg dose): 23%
- mean Cmax lower than in adults receiving the 25-mg dose ([3]; pediatric subjects, 25-mg dose): 26%
